This note sets out measurements from ChEMBL document CHEMBL1201862, “PubChem BioAssay data set” (2004).

The structures appear in SMILES notation.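 Cultured in 96-well plates, cells were exposed to test compound for 48 hours across five concentrations. At the GI50, growth is halved.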 Activity calls are given as the source filed them. Rule as the data show it: active = GI50 up to about 1.1 µM and inactive = higher.

Some test systems named below: RPMI-8226; HL-60; A498; KM12; M14; SF-268; SNB-19; NCI-H460; UO-31; SK-OV-3; HCT-15; OVCAR-4; ACHN; SNB-75; SR; UACC-62; COLO 205.
Common to all, as to assay: growth of human tumour cells (NCI), 48 h

Regarding `Cc1ccc(S(=O)OCc2c(C)c(C)c(COS(=O)c3ccc(C)cc3)c(C)c2C)cc1` (stereo unspecified), the GI50 in the test with RPMI-8226, in the test with HL-60, in the test on A498, in the test on KM12, in the test with M14 and in the test with SF-268 was > 100 µM (inactive) each time. Also, the GI50 in the test on SNB-19 is > 100 µM (inactive); in the test on NCI-H460 it was > 100 µM (inactive); with UO-31, > 100 µM (inactive); in the test on SK-OV-3, > 100 µM (inactive); in the test on HCT-15, over 100 µM; with OVCAR-4, > 100 µM (inactive). The GI50 with ACHN, with SNB-75, in the test with SR, in the test with UACC-62 and with COLO 205 was > 100 µM (inactive) each time.
For the compound `CCN(CC)/[N+]([O-])=N/OCC(C)O` (stereo unspecified), the GI50 with HL-60, in the test with A498, in the test with KM12, in the test on M14, in the test with SF-268 and with SNB-19 was > 100 µM (inactive) each time. Moreover, the GI50 is > 100 µM (inactive) in the test with NCI-H460; > 100 µM (inactive) in the test with UO-31; > 100 µM (inactive) in the test with SK-OV-3; over 100 µM in the test on HCT-15; > 100 µM (inactive) in the test on ACHN; > 100 µM (inactive) in the test on SNB-75. Also, the GI50 with SR and in the test with UACC-62 was > 100 µM (inactive) throughout.
Regarding `Oc1ccc(I)c2cccnc12`, the GI50 in the test with RPMI-8226 was 2.89 µM (inactive); in the test with HL-60 it was 2.12 µM (inactive); in the test on A498, 32 µM (inactive); with KM12, 14.8 µM (inactive); with M14, 10.4 µM (inactive); in the test on SF-268 it was 7.45 µM (inactive). The GI50 with SNB-19 was 17.8 µM (inactive); in the test on NCI-H460, 3.95 µM (inactive); in the test on UO-31, 6.98 µM (inactive); in the test on SK-OV-3, 5.07 µM (inactive); in the test on HCT-15, 4.19 µM; in the test on OVCAR-4, 26.4 µM (inactive). Besides, the GI50 is 7.13 µM (inactive) in the test with ACHN, 3.35 µM (inactive) in the test on SR and 27.2 µM (inactive) in the test with COLO 205.
Take `CC(/C=C/c1ccccc1)=N\N=C(C)\C=C\c1ccccc1`: the GI50 in the test on RPMI-8226, in the test on HL-60, with A498, with KM12, with M14 and in the test on SF-268 was > 100 µM (inactive) each time. For the same compound, the GI50 was > 100 µM (inactive) with NCI-H460; > 100 µM (inactive) in the test with SK-OV-3; over 100 µM with HCT-15; > 100 µM (inactive) in the test on OVCAR-4; > 100 µM (inactive) in the test on ACHN; 42.2 µM (inactive) in the test with SNB-75. Further, the GI50 is > 100 µM (inactive) with SR and > 10 µM (inactive) with COLO 205.
With `O=C(N/C(=C\c1cc(Cl)ccc1Cl)c1nc2ccccc2[nH]1)c1ccccc1`, the GI50 in the test with HL-60 is 21.2 µM (inactive); in the test with KM12, 27.4 µM (inactive); with M14, 27.9 µM (inactive); in the test on SF-268, 36.1 µM (inactive); in the test with SNB-19, 46.9 µM (inactive); in the test on UO-31 it was 20.2 µM (inactive). For the same compound, the GI50 in the test on SK-OV-3 was > 100 µM (inactive); with HCT-15, 24 µM; in the test with OVCAR-4, 30.1 µM (inactive); in the test on ACHN, 33.3 µM (inactive); in the test on SR, 24.4 µM (inactive); in the test with UACC-62 it was 38.9 µM (inactive).
For the compound `O=C(O/C(=C(/N=N/c1ccccc1)c1ccccc1)c1ccccc1)c1ccccc1`, the GI50 in the test on RPMI-8226, in the test with KM12, with SNB-19, in the test on NCI-H460, in the test on UO-31 and in the test with SK-OV-3 was > 100 µM (inactive) throughout. For the same compound, the GI50 in the test with HCT-15 is over 100 µM; with OVCAR-4, > 100 µM (inactive); with ACHN, > 100 µM (inactive); in the test on SNB-75, 87.3 µM (inactive); in the test with SR, > 100 µM (inactive); in the test on UACC-62 it was > 100 µM (inactive).
In the case of `CCN(CC)c1ccc2c(c1)Oc1ccc(N(CC)CC)cc1C21Oc2ccccc2-c2c1c1ccccc1n2CC` (stereo unspecified), the GI50 was 0.592 µM (active) with RPMI-8226; 1.25 µM (inactive) with HL-60; 8.34 µM (inactive) in the test on A498; 3.07 µM (inactive) with M14; 2.38 µM (inactive) in the test with SF-268; 6.87 µM (inactive) in the test with SNB-19. Moreover, the GI50 in the test with UO-31 is 1.43 µM (inactive); in the test with SK-OV-3, 4.07 µM (inactive); in the test on HCT-15 it was 3.82 µM; with OVCAR-4, 3.58 µM (inactive); with ACHN, 1.32 µM (inactive); with SNB-75 it was > 100 µM (inactive). In addition, the GI50 in the test with SR was 4.48 µM (inactive); with UACC-62, 1.85 µM (inactive); in the test on COLO 205, 2.45 µM (inactive).
`COP(=O)(CC(=O)C1OC(C)(C)OC1C(O)COCc1ccccc1)OC` (stereo unspecified): the GI50 in the test on RPMI-8226, in the test with HL-60, in the test on A498, in the test with KM12, in the test with M14 and in the test with SF-268 was > 100 µM (inactive) each time. For the same compound, the GI50 in the test with NCI-H460 is > 100 µM (inactive); in the test on UO-31 it was > 100 µM (inactive); in the test on HCT-15 it was over 100 µM; with OVCAR-4, > 100 µM (inactive); in the test on ACHN it was > 100 µM (inactive); in the test with SNB-75, > 100 µM (inactive). For the same compound, the GI50 in the test with SR, with UACC-62 and in the test on COLO 205 was > 100 µM (inactive) in each case.
Regarding `O=c1c2ccccc2n2n1CC(O)C2` (stereo unspecified), the GI50 in the test on RPMI-8226, in the test with HL-60, with KM12, in the test with M14, in the test on SF-268 and with SNB-19 was > 100 µM (inactive) in each case. Also, the GI50 with NCI-H460 is > 100 µM (inactive); in the test with UO-31 it was > 100 µM (inactive); in the test with SK-OV-3, > 100 µM (inactive); with HCT-15 it was over 100 µM; with OVCAR-4, > 100 µM (inactive); in the test with ACHN, 2.14 µM (inactive). For the same compound, the GI50 with SNB-75 is > 100 µM (inactive); with SR it was > 100 µM (inactive); in the test on UACC-62, 0.641 µM (active); in the test with COLO 205 it was > 100 µM (inactive).
Turning to `COC1OC(CO)C(O)C1N` (stereo unspecified), the GI50 in the test on HL-60, in the test with A498, in the test with KM12, with M14, in the test with SF-268 and with SNB-19 was > 100 µM (inactive) in each case. Further, the GI50 was > 100 µM (inactive) in the test with NCI-H460; > 100 µM (inactive) in the test with SK-OV-3; over 100 µM with HCT-15; > 100 µM (inactive) in the test on OVCAR-4; > 100 µM (inactive) in the test on ACHN; > 100 µM (inactive) with SNB-75. The GI50 in the test on SR, in the test on UACC-62 and with COLO 205 was > 100 µM (inactive) in each case.
Take `CC(=O)N(C)c1ccc2ncccc2c1[N+](=O)[O-]`: the GI50 with RPMI-8226, in the test with HL-60, in the test with A498, in the test with KM12, in the test on M14 and with SF-268 was > 100 µM (inactive) throughout. Moreover, the GI50 with SNB-19 is > 100 µM (inactive); with NCI-H460, > 100 µM (inactive); with UO-31, > 100 µM (inactive); in the test on HCT-15, over 100 µM; in the test on OVCAR-4, > 100 µM (inactive); with ACHN, > 100 µM (inactive). For the same compound, the GI50 in the test with SNB-75, in the test on SR and with UACC-62 was > 100 µM (inactive) in each case.
On to `ClC[Si]12OCCN(CCO1)CCO2`, for which the GI50 with RPMI-8226, with HL-60, with A498, with KM12, in the test on SF-268 and in the test with SNB-19 was > 100 µM (inactive) each time. For the same compound, the GI50 in the test on NCI-H460, in the test on UO-31, with SK-OV-3, with ACHN, with SNB-75 and in the test on SR was > 100 µM (inactive) throughout. Further, the GI50 in the test with UACC-62 and in the test on COLO 205 was > 100 µM (inactive) in each case.
With `CN1CCC(O)C(CNC23CC4CC(CC(C4)C2)C3)C1` (stereo unspecified), the GI50 in the test on HL-60, with A498, with KM12, in the test with SF-268, in the test with SNB-19 and with NCI-H460 was > 100 µM (inactive) in each case. Further, the GI50 in the test on UO-31, with SK-OV-3, in the test on OVCAR-4, with ACHN, in the test with SR and in the test with UACC-62 was > 100 µM (inactive) throughout. In addition, the GI50 in the test on COLO 205 was > 100 µM (inactive).
As to `[C-]#[N+]C(C)(C)C[C@H]1CC(C)C2CCC(C)C3([N+]#[C-])CCC(=C)C1[C@H]23` (stereo partly specified), the GI50 is 0.601 µM (active) in the test with HL-60; 7.96 µM (inactive) with A498; 0.308 µM (active) in the test with KM12; 1.95 µM (inactive) in the test with M14; 0.308 µM (active) in the test on SF-268; 2.22 µM (inactive) in the test with SNB-19. The GI50 is 0.251 µM (active) with UO-31; 3.69 µM (inactive) in the test on SK-OV-3; 0.234 µM (active) in the test with OVCAR-4; 0.169 µM (active) in the test with ACHN; 8.32 µM (inactive) in the test on SNB-75; 0.418 µM (active) in the test on SR. Moreover, the GI50 is 2.82 µM (inactive) in the test on UACC-62 and 0.166 µM (active) in the test on COLO 205.
